Key:
[1] = system: A375 cells (V600E mutated BRAF), ERK phospho-T202/Y204; experiment: HTRF assay for P-ERK determination in A375 cells (BRAF inhibition); assay type: cell-based; conditions: Homo sapiens, A-375, 1 hour drug incubation, DMSO = 100%, 10 μM Dabrafenib = 0%, top concentration 10 μM, read-out: P-ERK_A375: IC50
In short: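 A375 cells (V600E BRAF), 8000/well, treated 1 h with compounds at 0.001–10 μM final in duplicate; lysed and phospho-ERK (Thr202/Tyr204) read by HTRF at 665/620 nm after overnight RT incubation. Blank-subtracted ratios normalized to DMSO (100%) and 10 μM dabrafenib (0%); IC50 from sigmoidal fit.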

[2] = system: HCT116 cells (WT BRAF), ERK phospho-T202/Y204; experiment: HTRF assay for P-ERK determination in HCT116 cells (BRAF activation, paradox); assay type: cell-based; conditions: for EC50: Homo sapiens, HCT-116, HCT116 cells, 1 hour drug incubation, activation relative to maximum Dabrafenib-mediated activation (100%), top concentration 10 μM, read-out: P-ERK_HCT-116: EC50—50PCT; for Fold Selectivity HCT-116 EC50-50/ A375: ratio of P-ERK HCT-116 EC50-50PCT to P-ERK A375 IC50
In short: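 HCT116 (WT BRAF) cells, 8000/well in DMEM + 10% FBS, treated 1 h with compound at 0.001–10 μM in duplicate; lysed, then HTRF antibodies for ERK phospho-T202/Y204, read after overnight dark incubation at room temperature. Blank-subtracted ratio normalized to DMSO (0%) and peak dabrafenib signal (100%); sigmoidal or bell-shaped fit gives % activation.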

[3] = biological target: BRAF V660E (Homo sapiens, UniProt P15056, V600E); experiment: KD BRAF V660E (Table 1; no method described); assay type: binding
Chain of BRAF V660E (P15056 2-766 V600E): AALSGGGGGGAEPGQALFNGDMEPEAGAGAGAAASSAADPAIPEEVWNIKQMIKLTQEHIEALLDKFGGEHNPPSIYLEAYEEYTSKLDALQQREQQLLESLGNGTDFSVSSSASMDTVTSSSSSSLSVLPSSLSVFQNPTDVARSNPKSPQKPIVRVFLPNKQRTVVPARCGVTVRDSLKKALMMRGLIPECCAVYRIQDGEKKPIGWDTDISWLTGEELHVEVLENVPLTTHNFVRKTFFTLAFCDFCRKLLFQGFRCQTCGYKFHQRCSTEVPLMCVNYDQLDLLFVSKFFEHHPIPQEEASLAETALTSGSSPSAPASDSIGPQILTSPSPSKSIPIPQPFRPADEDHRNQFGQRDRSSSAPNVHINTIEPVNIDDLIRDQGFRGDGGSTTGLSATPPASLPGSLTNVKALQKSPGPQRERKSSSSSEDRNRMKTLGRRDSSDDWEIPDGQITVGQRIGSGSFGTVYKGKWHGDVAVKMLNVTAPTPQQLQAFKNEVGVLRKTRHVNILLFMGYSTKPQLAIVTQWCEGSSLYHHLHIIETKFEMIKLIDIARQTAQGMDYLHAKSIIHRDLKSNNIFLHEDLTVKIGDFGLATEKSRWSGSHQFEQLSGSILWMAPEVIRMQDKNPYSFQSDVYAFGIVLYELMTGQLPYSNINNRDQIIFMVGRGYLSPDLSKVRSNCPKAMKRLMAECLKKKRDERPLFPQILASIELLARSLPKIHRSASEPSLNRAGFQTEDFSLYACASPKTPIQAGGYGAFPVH

[4] = biological target: BRAF (Homo sapiens, UniProt P15056); experiment: KD BRAF (Table 1; no method described); assay type: binding
Chain of BRAF (P15056 whole entry): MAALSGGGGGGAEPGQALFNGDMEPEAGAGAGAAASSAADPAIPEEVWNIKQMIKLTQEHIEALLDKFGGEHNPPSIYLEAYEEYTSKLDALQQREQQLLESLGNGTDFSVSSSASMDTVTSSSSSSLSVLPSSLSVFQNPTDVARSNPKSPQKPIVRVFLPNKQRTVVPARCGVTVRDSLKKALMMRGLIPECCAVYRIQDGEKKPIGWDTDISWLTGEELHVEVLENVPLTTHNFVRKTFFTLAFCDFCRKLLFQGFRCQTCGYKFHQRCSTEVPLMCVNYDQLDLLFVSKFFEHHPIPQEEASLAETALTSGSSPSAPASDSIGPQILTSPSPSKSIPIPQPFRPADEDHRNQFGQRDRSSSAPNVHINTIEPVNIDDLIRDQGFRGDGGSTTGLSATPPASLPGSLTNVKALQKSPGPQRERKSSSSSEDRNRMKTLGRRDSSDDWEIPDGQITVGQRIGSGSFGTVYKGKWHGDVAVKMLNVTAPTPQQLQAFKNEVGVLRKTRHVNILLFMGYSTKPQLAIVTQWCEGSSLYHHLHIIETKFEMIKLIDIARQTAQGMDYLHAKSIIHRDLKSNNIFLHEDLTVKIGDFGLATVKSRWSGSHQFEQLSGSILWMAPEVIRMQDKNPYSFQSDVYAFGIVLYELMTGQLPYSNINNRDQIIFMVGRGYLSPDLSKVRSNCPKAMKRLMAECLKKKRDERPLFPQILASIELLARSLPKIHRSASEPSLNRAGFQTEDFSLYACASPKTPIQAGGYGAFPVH

Row | SMILES | IC50 [1] [nM] | EC50 [2] [nM] | Fold Selectivity HCT-116 EC50-50/ A375 [2] | Kd [3] [nM] | Kd [4] [nM]
1 | CC(=O)N1Cc2ccc(CCNc3ncc4cc(-c5c(F)ccc(NS(=O)(=O)N6CC[C@@H](F)C6)c5F)c(=O)n(C)c4n3)cc2C1 [Example 49, (3R)—N-[3-[2-[2-(2-Acetyl-1,3-dihydroisoindol-5-yl)ethylamino]-8-methyl-7-oxopyrido[2,3-d]pyrimidin-6-yl]-2,4-difluorophenyl]-3-fluoropyrrolidine-1-sulfonamide] | 8.4 | 989 | 117.8 | 6.5 | 2.5
2 | CC(=O)N(C)Cc1cccc(CCNc2ncc3cc(-c4c(F)ccc(NS(=O)(=O)N5CC[C@@H](F)C5)c4F)c(=O)n(C)c3n2)c1 [Example 36, N-[[3-[2-[[6-[2,6-difluoro-3-[[(3R)-3-fluoropyrrolidin-1-yl]sulfonylamino]phenyl]-8-methyl-7-oxopyrido[2,3-d]pyrimidin-2-yl]amino]ethyl]phenyl]methyl]-N-methylacetamide] | 20.5 | 2730 | 133.4 | 17.2 | 8.9
3 | CC(=O)N[C@@H]1CC[C@@H](Nc2ncc3cc(-c4c(F)ccc(NS(=O)(=O)N5CC[C@@H](F)C5)c4F)c(=O)n(C)c3n2)C1 (racemic) [Example 23, N-[(1R,3R)-3-[[6-[2,6-difluoro-3-[[(3R)-3-fluoropyrrolidin-1-yl]sulfonylamino]phenyl]-8-methyl-7-oxopyrido[2,3-d]pyrimidin-2-yl]amino]cyclopentyl]acetamide AND N-[(1S,3S)-3-[[6-[2,6-difluoro-3-[[(3R)-3-fluoropyrrolidin-1-yl]sulfonylamino]phenyl]-8-methyl-7-oxopyrido[2,3-d]pyrimidin-2-yl]amino]cyclopentyl]acetamide] | 69 | 4100 | 59.4 | 21.1 | 7.5
4 | CC(C)(C)OC(=O)N1CCC(n2c(=O)c(-c3c(F)ccc(NS(=O)(=O)N4CC[C@@H](F)C4)c3F)cc3cnc(NCC4CC4)nc32)C1 (mixture of isomers) [Example 38, tert-Butyl (3RS)-3-[2-(cyclopropylmethylamino)-6-[2,6-difluoro-3-[[(3R)-3-fluoropyrrolidin-1-yl]sulfonylamino]phenyl]-7-oxopyrido[2,3-d]pyrimidin-8-yl]pyrrolidine-1-carboxylate] | 826 | ≥ 10000 | 12.1 | 2820 | 1420
5 | Cn1c(=O)c(-c2c(F)ccc(NS(=O)(=O)C3CCCC3)c2F)cc2cnc(NCCC3CCN(C(=O)OC(C)(C)C)CC3)nc21 [Example 13, tert-butyl 4-[2-[[6-[3-(cyclopentylsulfonylamino)-2,6-difluorophenyl]-8-methyl-7-oxopyrido[2,3-d]pyrimidin-2-yl]amino]ethyl]piperidine-1-carboxylate] | 272 | 9460 | 34.7 | 440 | 350
6 | COC(=O)Cc1cccc(CCNc2ncc3cc(-c4c(F)ccc(NS(=O)(=O)N5CC[C@@H](F)C5)c4F)c(=O)n(C)c3n2)c1 [Example 47, methyl 2-[3-[2-[[6-[2,6-difluoro-3-[[(3R)-3-fluoropyrrolidin-1-yl]sulfonylamino]phenyl]-8-methyl-7-oxopyrido[2,3-d]pyrimidin-2-yl]amino]ethyl]phenyl]acetate] | 38.5 | 4470 | 116.0 | 23.2 | 9.2

Results, then the molecule that gave them:

Row | IC50 [1] [nM] | EC50 [2] [nM] | Fold Selectivity HCT-116 EC50-50/ A375 [2] | Kd [3] [nM] | Kd [4] [nM] | SMILES
7 | 44 | 3180 | 72.3 | 26.8 | 12.2 | CC(=O)NCCCCCNc1ncc2cc(-c3c(F)ccc(NS(=O)(=O)N4CC[C@@H](F)C4)c3F)c(=O)n(C)c2n1 [Example 25, N-[5-[[6-[2,6-difluoro-3-[[(3R)-3-fluoropyrrolidin-1-yl]sulfonylamino]phenyl]-8-methyl-7-oxopyrido[2,3-d]pyrimidin-2-yl]amino]pentyl]acetamide]
8 | 33.4 | 1370 | 40.9 | 53 | 14.7 | CC(=O)N1CCC(CCCNc2ncc3cc(-c4c(F)ccc(NS(=O)(=O)N5CC[C@@H](F)C5)c4F)c(=O)n(C)c3n2)CC1 [Example 28, (3R)-N-[3-[2-[3-(1-acetylpiperidin-4-yl)propylamino]-8-methyl-7-oxopyrido[2,3-d]pyrimidin-6-yl]-2,4-difluorophenyl]-3-fluoropyrrolidine-1-sulfonamide]
9 | 375 | ≥ 10000 | >26.7 | 60.1 | 20.1 | CC(=O)NCCOCCNc1ncc2cc(-c3c(F)ccc(NS(=O)(=O)N4CC[C@@H](F)C4)c3F)c(=O)n(C)c2n1 [Example 29, N-[2-[2-[[6-[2,6-difluoro-3-[[(3R)-3-fluoropyrrolidin-1-yl]sulfonylamino]phenyl]-8-methyl-7-oxopyrido[2,3-d]pyrimidin-2-yl]amino]ethoxy]ethyl]acetamide]
10 | 7210 | ≥ 10000 | 1.4 | 59.6 | 38.3 | Cl.Cn1c(=O)c(-c2c(F)ccc(NS(=O)(=O)N3CC[C@@H](F)C3)c2F)cc2cnc(NCCCC(=O)NC3CCNCC3)nc21 [Example 19, 4-[[6-[2,6-difluoro-3-[[(3R)-3-fluoropyrrolidin-1-yl]sulfonylamino]phenyl]-8-methyl-7-oxopyrido[2,3-d]pyrimidin-2-yl]amino]-N-piperidin-4-ylbutanamide hydrochloride]
11 | 79.8 | 6400 | 80.2 | 52.2 | 21 | CC(=O)N1CCN(CCNc2ncc3cc(-c4c(F)ccc(NS(=O)(=O)N5CC[C@@H](F)C5)c4F)c(=O)n(C)c3n2)CC1 [Example 31, (3R)-N-[3-[2-[2-(4-acetylpiperazin-1-yl)ethylamino]-8-methyl-7-oxopyrido[2,3-d]pyrimidin-6-yl]-2,4-difluorophenyl]-3-fluoropyrrolidine-1-sulfonamide]

Source: patent US20230322776A1, “NEW ARYL-PYRIDO-PYRIMIDIN-ONE DERIVATIVES” (Hoffmann-La Roche Inc., priority 2020, published 2023)
